AC50 data for 47 compounds are collected here from patent US20240174670A1, “4-AMINO-6-OXO-PYRIDAZINE DERIVATIVES MODULATING NLRP3” (JANSSEN PHARMACEUTICA NV, priority 2021, published 2024).

A value given as a limit tells only on which side of the number the result lay.

One assay has as its system IL-1β. Put plainly: PBMC assay, IL-1β release after LPS stimulation. Type of assay: cell-based. The settings on record: human PBMCs, 30 min preincubation, 100 ng/ml LPS for 6 hrs, supernatant, MSD technology, read-out: IL1β AC50. As to the method: The activity of a compound according to the present invention can be assessed by in vitro methods.
(§1) Peripheral venous blood was collected from healthy individuals and human peripheral blood mononuclear cells (PBMCs) were isolated from blood by Ficoll-Histopaque (Sigma-Aldrich, A0561) density gradient centrifugation. After isolation, PBMCs were stored in liquid nitrogen for later use. Upon thawing, PBMC cell viability was determined in growth medium (RPMI media supplemented with 10% fetal bovine serum, 1% Pen-Strep and 1% L-glutamine). Compounds were spotted in a 1:3 serial dilution in DMSO and diluted to the final concentration in 30 μl medium in 96 well plates (Falcon, 353072). PBMCs were added at a density of 7.5×10^4 cells per well and incubated for 30 min in a 5% CO2 incubator at 37 ° C. LPS stimulation was performed by addition of 100 ng/ml LPS (final concentration, Invivogen, tlrl-smlps) for 6 hrs followed by collection of cellular supernatant and the analysis of IL-1β[…] and TNF cytokines levels (uμ) via MSD technology according to manufacturers' guidelines (MSD, K151A0H).
(§2) IC50 and AC50 values (for IL-1β) and EC50 and AC50 values (TNF) were obtained on compounds of the invention/examples, and the AC50 values are depicted in the following table: […]

Another assay has as its system TNF. Put plainly: PBMC assay, TNF release after LPS stimulation. Type of assay: cell-based. The note with it: human PBMCs, 30 min preincubation, 100 ng/ml LPS for 6 hrs, supernatant, MSD technology. As to the method: as §1, §2

In general, AC50 refers to the concentration giving half of the maximal activity seen. As to `CC(C)c1nn(CC(=O)Nc2ccc3nncn3c2)c(=O)cc1N1CCC[C@H]1CO` (single isomer, unassigned) [Compound 11], the AC50 was > 15 µM with IL-1β and > 10 µM with TNF.

In the case of `CC(C)c1nn(CC(=O)Nc2ccc3nncn3c2)c(=O)cc1N1CC[C@H](N(C)C)C1` [Compound 28], the AC50 in the assay with IL-1β is > 15 µM; in the assay with TNF, > 10 µM.

Take `CC(C)c1nn(CC(=O)Nc2ccc3nncn3c2)c(=O)cc1N1CC(C)(F)C1` [Compound 32]: the AC50 with IL-1β was 1.37 µM; with TNF, > 20 µM.

Take `CC(C)c1nn(CC(=O)Nc2ccc3nncn3c2)c(=O)cc1NC1CC1` [Compound 66]: the AC50 in the assay with IL-1β and with TNF was > 20 µM in each case.

On to `CC(C)c1nn(CC(=O)Nc2ccc3nncn3c2)c(=O)cc1NCC1CC1` [Compound 29, 2-[4-(cyclopropylmethylamino)-3-isopropyl-6-oxo-pyridazin-1-yl]-N-([1,2,4]triazolo[4,3-a]pyridin-6-yl)acetamide], for which the AC50 in the assay with IL-1β was 1.53 µM; in the assay on TNF, > 10 µM.

Regarding `CC(C)c1nn(CC(=O)Nc2ccc3nncn3c2)c(=O)cc1N1CCC2(C1)CC2(F)F` (stereo not shown) [Compound 58], the AC50 in the assay on IL-1β is 0.89 µM; in the assay on TNF, > 20 µM.

As to `CC(C)c1nn(CC(=O)Nc2ccc3nncn3c2)c(=O)cc1NCC(F)(F)F` [Compound 4], the AC50 in the assay on IL-1β is > 15 µM; with TNF, > 10 µM.

As to `CC(C)c1nn(CC(=O)Nc2ccc3nncn3c2)c(=O)cc1N1CC[C@H](F)C1` [Compound 9], the AC50 is 2.49 µM in the assay with IL-1β and > 10 µM in the assay on TNF.

For the compound `CC(C)c1nn(CC(=O)Nc2ccc3nncn3c2)c(=O)cc1N1CC[C@H](C)C1` [Compound 51], the AC50 in the assay with IL-1β was 0.42 µM; in the assay with TNF it was > 20 µM.

As for `CC1CC(C)CN(c2cc(=O)n(CC(=O)Nc3ccc4nncn4c3)nc2C(C)C)C1` (stereo not shown) [Compound 56], the results for the AC50 in the assay with IL-1β and in the assay on TNF were 0.64 µM and 16 µM, respectively.

For the compound `CC(C)c1nn(CC(=O)Nc2ccc3nncn3c2)c(=O)cc1N1CC2CC2C1` (stereo not shown) [Compound 14], the AC50 with IL-1β is 0.09 µM; in the assay on TNF, > 10 µM.

With `CC(C)CN(C)c1cc(=O)n(CC(=O)Nc2ccc3nncn3c2)nc1C(C)C` [Compound 47], the AC50 with IL-1β was 13.8 µM; in the assay with TNF it was > 20 µM.

With `CC(C)c1nn(CC(=O)Nc2ccc3nncn3c2)c(=O)cc1Nc1cnc(C2CC2)nc1` [Compound 39], the AC50 in the assay on IL-1β and in the assay with TNF was > 6.67 µM throughout.

`CC(C)c1nn(CC(=O)Nc2ccc3nncn3c2)c(=O)cc1N1CCC(c2nccs2)C1` (stereo not shown) [Compound 64]: the concentration at half-maximal activity (AC50) was 15.1 µM with IL-1β and > 20 µM in the assay on TNF.

As for `CC(C)c1nn(CC(=O)Nc2ccc3nncn3c2)c(=O)cc1Nc1cc([C@H]2C[C@H]2C)on1` [Compound 43], the AC50 in the assay on IL-1β and in the assay on TNF was > 20 µM in each case.

On to `CC(C)c1nn(CC(=O)Nc2ccc3nncn3c2)c(=O)cc1N1CCCC1` [Compound 5, 2-(3-isopropyl-6-oxo-4-pyrrolidin-1-yl-pyridazin-1-yl)-N-([1,2,4]triazolo[4,3-a]pyridin-6-yl)acetamide], for which the AC50 with IL-1β was 0.33 µM; with TNF it was > 10 µM.

As for `COC[C@@H]1CCCN1c1cc(=O)n(CC(=O)Nc2ccc3nncn3c2)nc1C(C)C` [Compound 8], the values for the AC50 in the assay on IL-1β and in the assay with TNF were 5.81 µM and > 10 µM, respectively.

As for `CC(C)c1nn(CC(=O)Nc2ccc3nncn3c2)c(=O)cc1N1CCC(F)(F)CC1` [Compound 12], the AC50 with IL-1β was > 15 µM; in the assay with TNF, > 10 µM.

For the compound `CC(C)c1nn(CC(=O)Nc2ccc3nncn3c2)c(=O)cc1NC1CCCC1` [Compound 7], the AC50 with IL-1β was 4.36 µM; in the assay on TNF, > 10 µM.

In the case of `CC(C)c1nn(CC(=O)Nc2ccc3nncn3c2)c(=O)cc1N1CCN(C)CC1` [Compound 48], the AC50 in the assay with IL-1β and with TNF was > 20 µM in each case.

As for `CC(C)c1nn(CC(=O)Nc2ccc3nncn3c2)c(=O)cc1N1CCC[C@@H]1C` [Compound 18], the values for the AC50 in the assay with IL-1β and with TNF were > 15 µM and > 10 µM, respectively.

In the case of `CC(C)c1nn(CC(=O)Nc2ccc3nncn3c2)c(=O)cc1N1CC2(CCC2)C1` [Compound 49], the AC50 in the assay with IL-1β amounted to 0.76 µM; in the assay with TNF, 8.29 µM.

Consider `CO[C@H]1CCN(c2cc(=O)n(CC(=O)Nc3ccc4nncn4c3)nc2C(C)C)C1` [Compound 16], for which the AC50 in the assay on IL-1β was 11.4 µM; with TNF it was > 10 µM.

As for `CC(C)c1nn(CC(=O)Nc2ccc3nncn3c2)c(=O)cc1Nc1cc(CC2CC2)on1` [Compound 44], the AC50 with IL-1β and with TNF was > 20 µM each time.

On to `COC[C@H]1CCCN1c1cc(=O)n(CC(=O)Nc2ccc3nncn3c2)nc1C(C)C` [Compound 15], for which the AC50 with IL-1β is 16.6 µM; with TNF it was > 10 µM.

As to `CC(C)CNc1cc(=O)n(CC(=O)Nc2ccc3nncn3c2)nc1C(C)C` [Compound 46], the values for the AC50 in the assay on IL-1β and in the assay with TNF were 1.36 µM and > 20 µM, respectively.

Consider `CC(C)c1nn(CC(=O)Nc2ccc3nncn3c2)c(=O)cc1N1CCC12CCOCC2` [Compound 25], for which the concentration at half-maximal activity (AC50) in the assay on IL-1β is > 15 µM; with TNF it was > 10 µM.

As to `CC(C)c1nn(CC(=O)Nc2ccc3nncn3c2)c(=O)cc1N1CCC2(CCCO2)C1` (stereo not shown) [Compound 52], the AC50 with IL-1β and with TNF was > 20 µM throughout.

For the compound `CC(C)c1nn(CC(=O)Nc2ccc3nncn3c2)c(=O)cc1N1CC[C@@H](N(C)C)C1` [Compound 27], the AC50 was > 15 µM in the assay with IL-1β and > 10 µM in the assay on TNF.

With `CO[C@@H]1CCN(c2cc(=O)n(CC(=O)Nc3ccc4nncn4c3)nc2C(C)C)C1` [Compound 17], the AC50 is 2.9 µM in the assay with IL-1β and > 10 µM with TNF.

With `CC(C)c1nn(CC(=O)Nc2ccc3nncn3c2)c(=O)cc1N1CCCC1C(C)C` (stereo not shown) [Compound 20], the AC50 in the assay on IL-1β is 10.8 µM; with TNF, > 10 µM.

In the case of `CC(C)c1nn(CC(=O)Nc2ccc3nncn3c2)c(=O)cc1Nc1cnn(CC23CC(CO2)C3)c1C(F)(F)F` [Compound 3], the AC50 with IL-1β is > 15 µM; in the assay with TNF, > 10 µM.

Regarding `CC(C)c1nn(CC(=O)Nc2ccc3nncn3c2)c(=O)cc1N1C2CCC1CC2` [Compound 21], the AC50 in the assay on IL-1β was 1.02 µM; in the assay with TNF, > 10 µM.

Regarding `CC(C)c1nn(CC(=O)Nc2ccc3nncn3c2)c(=O)cc1Nc1cccc(C2CC2)n1` [Compound 38, N-([1,2,4]triazolo[4,3-a]pyridin-6-yl)-2-(4-((6-cyclopropylpyridin-2-yl)amino)-3-isopropyl-6-oxopyridazin-1(6H)-yl)acetamide], the AC50 in the assay on IL-1β and with TNF was > 4 µM throughout.

With `CC(C)c1nn(CC(=O)Nc2ccc3nncn3c2)c(=O)cc1N1CCOCC1` [Compound 6], the AC50 is > 15 µM in the assay with IL-1β and > 10 µM in the assay on TNF.

On to `CC(C)c1nn(CC(=O)Nc2ccc3nncn3c2)c(=O)cc1N1CCC(Cc2ccncc2)C1` (stereo not shown) [Compound 57], for which the AC50 in the assay with IL-1β and with TNF was > 20 µM throughout.

As for `CC(C)c1nn(CC(=O)Nc2ccc3nncn3c2)c(=O)cc1N(C)C` [Compound 30, 2-[4-(dimethylamino)-3-isopropyl-6-oxo-pyridazin-1-yl]-N-([1,2,4]triazolo[4,3-a]pyridin-6-yl)acetamide], the AC50 in the assay on IL-1β was > 15 µM; with TNF it was > 10 µM.

With `CC(C)c1nn(CC(=O)Nc2ccc3nncn3c2)c(=O)cc1N1CC[C@@H]2C[C@@H]2C1` [Compound 33], the AC50 in the assay on IL-1β is 0.5 µM; in the assay on TNF, > 20 µM.

On to `CC(C)c1nn(CC(=O)Nc2ccc3nncn3c2)c(=O)cc1N1CC(CC(F)F)C1` [Compound 35], for which the AC50 is 4.36 µM with IL-1β and > 20 µM with TNF.

`CC(C)c1nn(CC(=O)Nc2ccc3nncn3c2)c(=O)cc1N1CCCC1Cc1ccccn1` (stereo not shown) [Compound 63]: the AC50 is 1.28 µM in the assay with IL-1β and > 20 µM with TNF.

As for `CC(C)c1nn(CC(=O)Nc2ccc3nncn3c2)c(=O)cc1NC1CC(C)(C)C1` [Compound 31, N-([1,2,4]triazolo[4,3-a]pyridin-6-yl)-2-(4-((3,3-dimethylcyclobutyl)amino)-3-isopropyl-6-oxopyridazin-1(6H)-yl)acetamide], the concentration at half-maximal activity (AC50) with IL-1β and in the assay with TNF was > 20 µM in each case.

With `CC(C)c1nn(CC(=O)Nc2ccc3nncn3c2)c(=O)cc1N1CCC[C@@H]1Cn1ccnc1` [Compound 62], the AC50 in the assay on IL-1β and in the assay with TNF was > 20 µM each time.

Take `CC(C)c1nn(CC(=O)Nc2ccc3nncn3c2)c(=O)cc1N1CCC2(CC1)CC2(F)F` [Compound 61]: the AC50 in the assay on IL-1β was 19.5 µM; in the assay with TNF, > 20 µM.

As to `CC(C)c1nn(CC(=O)Nc2ccc3nncn3c2)c(=O)cc1N1CC2(COC2)C1` [Compound 50], the AC50 in the assay on IL-1β and with TNF was > 20 µM each time.

As for `CC(C)c1nn(CC(=O)Nc2ccc3nncn3c2)c(=O)cc1N1CCC(c2ccncc2)C1` (stereo not shown) [Compound 65], the concentration at half-maximal activity (AC50) in the assay on IL-1β and in the assay with TNF was > 20 µM throughout.

As to `CCC1CCCN1c1cc(=O)n(CC(=O)Nc2ccc3nncn3c2)nc1C(C)C` (stereo not shown) [Compound 19], the AC50 with IL-1β is 2.61 µM; in the assay on TNF, > 10 µM.

`COC1CN(c2cc(=O)n(CC(=O)Nc3ccc4nncn4c3)nc2C(C)C)C1` [Compound 24]: the AC50 in the assay with IL-1β is 9.87 µM; in the assay on TNF it was > 10 µM.
